Tests used:
Experiment in all cases: relative viability (nuclei count vs DMSO), 5 days (fraction); higher = more cells survive
[1] = compound: CC[C@@H](C)CNCC(=O)N1CCC2=C([C@@H]1COC3=CC=CC(=C3)C)C=CS2 [RU-SKI 43] + N=C(N)NC(=N)NCCc1ccccc1 [Phenformin] (partner 250 µM)
Method in brief: (§1)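 Cells from lung cancer lines were seeded into 1536-well plates and, one day later, dosed by pin tool. Treatments were either a single drug or a fixed dose of an anchor drug with five library-drug doses (not always all listed) in √10 steps. After 5 days, nuclei were stained in a one-step fixation (final 0.05% Triton X-100, 1% formaldehyde, 1 ug/ml Hoechst) and counted on 4× images, and relative viability is the treated-to-vehicle nuclei ratio, as the median of duplicate plates.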

[2] = compound: CCc1c2c(nc3ccc(OC(=O)N4CCC(N5CCCCC5)CC4)cc13)-c1cc3c(c(=O)n1C2)COC(=O)[C@]3(O)CC [Irinotecan] + CCNC(=O)c1noc(-c2cc(C(C)C)c(O)cc2O)c1-c1ccc(CN2CCOCC2)cc1 [Luminespib] (partner 0.01 µM)
Method in brief: as §1

[3] = compound: CCc1c2c(nc3ccc(OC(=O)N4CCC(N5CCCCC5)CC4)cc13)-c1cc3c(c(=O)n1C2)COC(=O)[C@]3(O)CC [Irinotecan] + C[C@@H](Oc1cc(-c2cnn(C3CCNCC3)c2)cnc1N)c1c(Cl)ccc(F)c1Cl [Crizotinib] (partner 1 µM)
Method in brief: as §1

[4] = compound: Cn1cc(-c2cnc3ccc4ccc(CS(=O)(=O)NCc5ccccn5)cc4c(=O)c3c2)cn1 [MK-8033] + CS(=O)(=O)CCNCc1ccc(-c2ccc3ncnc(Nc4ccc(OCc5cccc(F)c5)c(Cl)c4)c3c2)o1 [Lapatinib] (partner 2 µM)
Method in brief: as §1

Row | Cell Line | relative viability ([1]; first compound 0.1 µM) | relative viability ([1]; first compound 0.3162 µM) | relative viability ([1]; first compound 1 µM) | relative viability ([1]; first compound 3.162 µM) | relative viability ([1]; first compound 10 µM) | relative viability ([2]; first compound 0.6325 µM) | relative viability ([2]; first compound 2 µM) | relative viability ([2]; first compound 6.325 µM) | relative viability ([2]; first compound 20 µM) | relative viability ([3]; first compound 0.6325 µM) | relative viability ([3]; first compound 2 µM) | relative viability ([3]; first compound 6.325 µM) | relative viability ([3]; first compound 20 µM) | relative viability ([4]; first compound 0.02 µM) | relative viability ([4]; first compound 0.06325 µM) | relative viability ([4]; first compound 0.2 µM) | relative viability ([4]; first compound 0.6325 µM) | relative viability ([4]; first compound 2 µM)
1 | LXF-289 | 0.53 | 0.551 | 0.574 | 0.548 | 0.514 | 0.592 | 0.288 | 0.176 | 0.208 | 0.726 | 0.549 | 0.247 | 0.208 | 0.902 | 0.907 | 0.874 | 0.917 | 0.875
2 | NCI-H23 | 0.772 | 0.849 | 0.836 | 0.857 | 0.698 | 0.228 | 0.394 | 0.332 | 0.241 | 0.514 | 0.463 | 0.295 | 0.348 | 1.27 | 0.818 | 0.919 | 1.35 | 1.09
3 | NCI-H322M | 0.718 | 0.758 | 0.832 | 0.833 | 0.771 | 0.844 | 0.777 | 0.529 | 0.181 | 0.475 | 0.405 | 0.42 | 0.316 | 0.605 | 0.508 | 0.531 | 0.575 | 0.602
4 | NCI-H358 | 0.305 | 0.432 | 0.402 | 0.436 | 0.271 | 0.285 | 0.152 | 0.151 | 0.143 | 0.497 | 0.431 | 0.484 | 0.139 | 0.427 | 0.317 | 0.44 | 0.42 | 0.456
5 | NCI-H441 | 0.966 | 1.02 | 0.836 | 0.844 | 0.729 | 0.231 | 0.332 | 0.304 | 0.309 | 0.577 | 0.314 | 0.257 | 0.286 |  |  |  |  | 
6 | NCI-H522 | 0.663 | 0.746 | 0.749 | 0.647 | 0.684 |  | 0.645 | 0.468 | 0.495 |  |  |  |  |  |  |  |  | 
7 | NCI-H1299 |  |  |  |  |  |  |  |  |  | 0.747 | 0.794 | 0.453 | 0.173 | 0.989 | 0.947 | 0.964 | 0.965 | 0.982
8 | NCI-H1395 | 0.485 | 0.453 | 0.476 | 0.421 | 0.433 | 0.76 | 0.651 | 0.388 | 0.534 |  |  |  |  | 1.1 | 0.958 | 0.858 | 0.931 | 1.35
9 | NCI-H1623 | 0.629 | 0.564 | 0.619 | 0.583 | 0.53 | 0.412 | 0.312 | 0.279 | 0.239 |  |  |  |  |  |  |  |  | 
10 | NCI-H1703 |  |  |  |  |  |  |  |  |  | 0.737 | 0.58 | 0.447 | 0.182 | 1.04 | 1.04 | 0.99 | 0.912 | 1.05
11 | NCI-H1793 | 0.401 | 0.391 | 0.464 | 0.323 | 0.3 |  | 0.193 | 0.192 | 0.262 |  |  |  |  | 0.793 |  | 0.492 | 0.783 | 0.495
12 | NCI-H2342 | 0.606 | 0.562 | 0.584 | 0.528 | 0.634 | 0.756 | 0.676 | 0.572 | 0.485 |  |  |  |  |  |  |  |  | 
13 | SW 900 | 0.626 | 0.64 | 0.785 | 0.687 | 0.611 | 0.203 | 0.387 | 0.366 | 0.465 |  |  |  |  |  |  |  |  | 

Reference: the supplement of paper PMC10307832
